Reference: US7105502B2, “Nitric oxide-releasing imidate and thioimidate diazeniumdiolates” (The United States of America as represented by the …, priority 2001, dated 2006)

Key:
[1] = Detection of NO released in solution, headspace swept with argon into a chemiluminescence detector; type: physicochemical
Experimental: The nitrites and all solvents were purchased from Aldrich Chemical Company (Milwaukee, Wis.). Nitric oxide was obtained form Matheson Gas Products (Montgomeryville, Pa.). The ^1H NMR and ^13C NMR spectra were recorded in D2O (^1H at 300 MHz; ^13C at 75 MHz). Ultraviolet spectra (10 mM NaOH unless otherwise specified) and kinetic information were obtained on a Hewlett Packard 8452A UV-visible spectrophotometer with a thermostated cell holder. Infrared data was recorded on a Perkin-Elmer 1430 infrared spectrometer. Nitric oxide was measured with a Thermal Energy Analyzer model 502A (Thermedics, Inc., Woburn, Mass.). Melting points are uncorrected. Elemental analyses were performed by Atlantic Microlab, Inc. (Norcross, Ga.).
(§1) For the detection of NO, selected compounds from the examples were dissolved in either pH 7.4 buffer or 10% H2SO4, and the headspace was swept with argon into a chemiluminescence detector. The detection of nitrous oxide (N2O), formed from the dimerization and dehydration of HNO, was done by gas chromatography in both pH 7.4 buffer and 0.1 M HCl.

[2] = Detection of nitrous oxide (N2O) by gas chromatography; type: physicochemical; details: acid (0.1 M HCl)
Experimental: as §1

Substance	NO (mole gas/mole cmpd) ([1]; acid (10% H2SO4))	NO (mole gas/mole cmpd) ([1]; pH 7.4 buffer)	N2O (mole gas/mole cmpd) [2] [mole gas/mole cmpd]
1-naphthyl diazeniumdiolate amide [Example 9]	0.02	0.16	
benzyl diazeniumdiolate methoxy imidate [Example 2]	0.46	0.36	1.52
